According to patent EP0830600B1, “FUNCTIONAL BIOASSAY FOR G-PROTEIN COUPLED RECEPTOR AGONISTS AND ANTAGONISTS” (Praecis Pharmaceuticals Incorporated, priority 1995, dated 1996):

Tests used:
[1] = molecular target: T1, human β2-adrenergic receptor (Homo sapiens, UniProt P07550); experiment: Cell morphology (photomicroscopy) of β2-adrenergic receptor-expressing cell line; assay type: cell-based; conditions: several days
T1 construct: expressed in transfected cells
Description: Several days later, cells were analyzed by photomicroscopy to determine the effect of treatment on cell morphology. […] Assessment of the agonist or antagonist properties of individual compounds or libraries of compounds can be achieved by, for example, microscopic observation of the cells, or alternatively, by video digitizing techniques to quantify cell shape changes and/or cell alignment changes.

[2] = system: untransfected CHO DUKX B 1 cells; experiment: MTT cell viability, control untransfected CHO cells; assay type: cell-based, Chinese Hamster; conditions: carbachol or pirenzepine; 5 days; Figure 2A
[3] = system: untransfected CHO cells; experiment: Cell morphology, control untransfected CHO cells; assay type: cell-based, Chinese Hamster; conditions: cells not expressing the recombinant β2-adrenergic receptor
Description: . Several days later, cells were analyzed by photomicroscopy to determine the effect of treatment on cell morphology. […]. Salbutamol induced both a change in cell shape (i.e., elongation of the cells) and an alignment of the cells with each other. […]. Assessment of the agonist or antagonist properties of individual compounds or libraries of compounds can be achieved by, for example, microscopic observation of the cells, or alternatively, by video digitizing techniques to quantify cell shape changes and/or cell alignment changes. […]

T1 sequence (P07550 whole entry): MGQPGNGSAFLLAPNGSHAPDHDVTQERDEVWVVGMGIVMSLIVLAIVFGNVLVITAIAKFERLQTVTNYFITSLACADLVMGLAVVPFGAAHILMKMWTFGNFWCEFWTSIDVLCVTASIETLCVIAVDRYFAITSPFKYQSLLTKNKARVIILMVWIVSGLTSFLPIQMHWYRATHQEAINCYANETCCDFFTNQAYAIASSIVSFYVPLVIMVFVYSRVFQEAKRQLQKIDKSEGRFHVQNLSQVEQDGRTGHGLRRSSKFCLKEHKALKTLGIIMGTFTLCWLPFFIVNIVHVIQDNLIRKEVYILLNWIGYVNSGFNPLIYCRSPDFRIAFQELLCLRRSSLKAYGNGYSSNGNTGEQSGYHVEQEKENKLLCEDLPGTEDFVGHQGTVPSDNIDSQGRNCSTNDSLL

For `COc1ccc(OC)c(C(O)C(C)NC(C)(C)C)c1` (centres unmarked) [butoxamine], which “cell morphology, antagonism of salbutamol effect” value ([1]; 10 nM butoxamine together with salbutamol) is on record?
Its value is “indistinguishable from control cells”.

And the “effect of treatment on cell morphology (cell shape and alignment)” value ([1]; compound alone (salbutamol 1 nM), photomicroscopy, Figure 4)?
The value was “no detectable change in cell shape or alignment”.

How did the “viability of untransfected CHO cells (MTT)” value [2] turn out when `C[N+](C)(C)CCOC(N)=O` [carbachol] was run?
The value was “little effect”.

How did the “viability of untransfected CHO cells (MTT)” value [2] turn out when `CN1CCN(CC(=O)N2c3ccccc3C(=O)Nc3cccnc32)CC1` [pirenzepine] was run?
Its value is “little effect”.

Which “change in cell shape or alignment on untransfected CHO cells” value [3] does the source give for `CC(C)(C)NCC(O)c1ccc(O)c(CO)c1` (centres unmarked) [salbutamol] here?
The value was “no detectable change in cell shape or alignment”.
